Results: patent publication US7368434B2, “Compounds useful for the inhibition of ALDH” (The Endowment for Research in Human Biology, Inc., priority 2002, dated 2008)
pIC50: −log10 of the molar value. Where “and” joins values, the source holds several entries; their conditions need not be identical. Identical values can stand only once.

Tests used:
MAO = MAO activity assay (membrane fraction of hamster liver mitochondria lysate); assay type: biochemical; details: for pIC50: read-out: MAO inhibition IC50
Description: (§1) Several of the synthesized compounds were tested for MAO and ALDH-2 suppression activity. The membrane and supernatant fractions of the lysate of a gradient purified hamster liver mitochondria preparation were used as sources of MAO and ALDH-2, respectively. ALDH-2 and MAO activity assays were performed according to established procedures (Rooke et al. (2000) J. Med. Chem. 43:4169).

ALDH-2 = molecular target: T1, ALDH-2 (Mesocricetus auratus, UniProt P81178); assay: ALDH-2 activity assay (supernatant of hamster liver mitochondria lysate); assay type: biochemical; details: for pIC50: read-out: ALDH-2 inhibition IC50
T1 construct: membrane and supernatant fractions of the lysate of a gradient purified hamster liver mitochondria preparation; from tissue; host or cells: hamster liver mitochondria, supernatant fraction of the lysate
T1 sequence (P81178 20-519): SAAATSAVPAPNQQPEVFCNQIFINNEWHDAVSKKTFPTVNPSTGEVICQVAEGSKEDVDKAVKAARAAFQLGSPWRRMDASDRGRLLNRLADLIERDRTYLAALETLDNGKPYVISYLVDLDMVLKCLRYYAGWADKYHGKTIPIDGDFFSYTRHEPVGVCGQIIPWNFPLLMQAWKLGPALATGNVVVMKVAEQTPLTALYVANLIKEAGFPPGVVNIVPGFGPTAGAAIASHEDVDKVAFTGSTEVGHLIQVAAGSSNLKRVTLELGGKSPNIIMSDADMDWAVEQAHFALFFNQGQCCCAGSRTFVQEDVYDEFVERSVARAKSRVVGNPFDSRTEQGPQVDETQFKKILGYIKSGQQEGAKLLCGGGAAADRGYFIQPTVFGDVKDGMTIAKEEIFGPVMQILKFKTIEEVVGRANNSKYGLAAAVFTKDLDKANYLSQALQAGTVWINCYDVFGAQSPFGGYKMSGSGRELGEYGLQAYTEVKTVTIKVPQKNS
Description: as §1

[1] = taken from Fujita et al. (1964); cited from earlier work
golden hamsters = assay: Ethanol drinking experiments, two-bottle choice; assay type: in vivo; details: 0.07 mmol/day/hamster for 5 consecutive days
Description: Effects of the newly synthesized analogs on hamster ethanol intake were determined according to the method described below. Animals were male adult golden hamsters (outbred, Lakeview Lak: LVG[SYR]), purchased from Charles River Laboratories, Wilmington, Mass. 01887 or Harlan Sprague Dawley, Inc., Indianapolis, Ind. 46229. Upon arrival, hamsters were housed in a room maintained at 23° C., 35-45% humidity, with a 12/12 hr light/dark cycle (light on 0600-1800 hr), ad libitum access to Purina Chow (5001) and a 15% v/v ethanol solution. After a week, each hamster was transferred to an individual stainless steel cage (26×18×17.5 cm). Two 50 ml drinking bottles, one containing water and the other a 15% ethanol solution, were provided continuously. The bottles were placed in holders equipped with tilted platforms which direct spillage to tubes placed outside of the cages. The positions of the two drinking bottles on each cage were altered daily to prevent development of positional preference. Fluid intake was measured at 0900 hr each day. Hamsters that drank significant (>8 ml/day) and consistent (daily variance <±20%) amounts of ethanol solution were selected for testing. To establish baseline ethanol and water intake, 1 ml sterile saline was administered daily to each hamster between 1500-1600 hr for 6 days (saline control period, Day 1 to Day 6). A daily dose of 0.07 mmol of test compound was then administered for 5 consecutive days (treatment period, Day 7 to Day 11). After the last dose, ethanol and water intake were monitored for another 6 days (post treatment period, Day 12 to Day 17). […] At an equivalent dose, daidzin suppressed ethanol intake by about 55% (Table 1).

[2] = test system: 5-HT metabolism in brain slices; assay: 5-HT metabolism in rat brain slices; assay type: cell-based
Source text: (§2) The effects of daidzin on monoamine metabolism were studied in hamster and rat liver and brain using tissue slices using 5-HT as the substrate. The effects of ethanol drinking on 5-HT metabolism in hamster liver and brain were examined. Freshly removed tissues were cut into small pieces (about 1 mm cubes) with a tissue-slicer, suspended in ice-cold phosphate buffered saline (PBS) (0.1 g/ml), and forced through a mesh 40 stainless steel screen mounted on a Millipore Swinnex Filter Holder. The minced tissues were allowed to sediment on ice before PBS was removed using a Pasteur pipette. The tissue slices were washed 5 more times each with 10 volumes of ice-cold PBS. After the final wash, tissues were suspended in 1 volume of PBS and dispensed using a micro-pipette with tips of i.d.=2 mm. 5-HT metabolism catalyzed by the tissue slices was assayed in a 1 ml assay medium containing PBS, 1 μM 5-HT, 100:1 tissue slices, and specified concentrations of daidzin or ethanol. Reactions were initiated by the addition of tissues and allowed to proceed for 30 min at 37° C. in a shaking water bath. Reactions were terminated by addition of 0.1 ml ice-cold 1 M HClO4, and 10 mM EDTA. […] Contents of 5-HT, 5-HIAL, 5-HTOL and 5-HIAA in the supernatants were analyzed by HPLC as described before (Rooke et al. (2000) J. Med. Chem. 43:4169).

[3] = test system: 5-HT metabolism in brain slices; assay: 5-HT metabolism in hamster brain slices; assay type: cell-based
Source text: as §2

[4] = Tissue distribution study, liver of hamsters on compound-Chow; assay type: in vivo, hamster; details: hamster, in vivo
[5] = test system: Syrian golden hamsters (Meso cricetus auratus); assay: Oral potency: compound mixed in chow, two-bottle free-choice ethanol intake; assay type: in vivo; details: oral
Description: The oral potency of hexzein (7-O-ω-carboxypentyldaidzein) in reducing ethanol intake in Syrian golden hamsters (Meso cricetus auratus) was examined under a two-bottle free-choice protocol. Hexzein was mixed with Purina rodent meal (5755M) at 0 mg: 1 g (control), 2 mg: 1 g, 4 mg: 1 g, and 5 mg: 1 g ratios and the mixtures were pressed into 1×1×0.5 inch pellets. Food pellets, ethanol solution and water were provided continuously throughout the study and their intake were measured every day at 5 pm. Hexzein given in this manner did reduce ethanol intake. Ethanol intake in hamsters on 2 mg/g, 4 mg/g, and 5 mg/g hexzein-Chow were reduced by 18.3±3.8%, 47.8±7.4% and 56.5±5.4%, respectively.

Compound: O=c1c(-c2ccccc2)coc2cc(O)ccc12 [Analog 1]
- pIC50 (MAO): 5.07

Compound: COc1ccc2c(=O)c(-c3ccccc3)coc2c1OC [Analog 34]
- ALDH-2 inhibition (in words) (ALDH-2): completely abolished ALDH-2 inhibitory activities
- Potency for MAO inhibition compared with counterpart analogs (in words) (MAO): substantially decreased potencies for MAO inhibition

Compound: O=c1c(-c2ccc(O)cc2)coc2cc(OCn3nnc4ccccc43)ccc12 [Analog 18]
- pIC50 (ALDH-2): 5.10 to 6.85

Compound: CCOC(=O)CCCCCOc1ccc2c(=O)c(-c3ccc(F)cc3)coc2c1 [Analog 24, 7-O-Ethoxycarbonylpentyl-4′-Fluoroisoflavone]
- π (hydrophobic constant of the 4′-substituent) [1]: 0.14

Compound: 4′-Bromoisoflavone 7-ω-Ethoxycarbonylpentyl Ether [Analog 26]
- π (hydrophobic constant of the 4′-substituent) [1]: 0.86

Compound: COc1ccc2c(=O)c(-c3ccc(O)cc3)coc2c1 [Analog 2, 7-Methoxy-4′-Hydroxyisoflavone]
- π (hydrophobic constant of the 4′-substituent) [1]: −0.67

Compound: 7-Ethoxycarbonylpentyl-4′-Aminoisoflavone [Analog 33]
- π (hydrophobic constant of the 4′-substituent) [1]: −1.23

Compound: CC(=O)Oc1ccc2c(=O)c(-c3ccccc3)coc2c1 [Analog 10]
- pIC50 (ALDH-2): 5.10 to 6.85

Compound: O=C(O)c1oc2cc(O)ccc2c(=O)c1-c1ccccc1 [Analog 21, 2-Carboxy-7-Hydroxyisoflavone]
- melting point: 257 to 258 °C

Compound: CCOC(=O)CCCCCOc1ccc2c(=O)c(-c3ccc(C)cc3)coc2c1 [Analog 30, 7-O-Ethoxycarbonylpentyl-4′-Methylisoflavone]
- π (hydrophobic constant of the 4′-substituent) [1]: 0.56

Compound: CCOC(=O)c1oc2cc(O)ccc2c(=O)c1-c1ccccc1 [Analog 20]
- ALDH-2 inhibition (in words) (ALDH-2): no effect on ALDH-2 activity

Compound: O=c1c(-c2ccc(Br)cc2)coc2cc(O)ccc12 [Analog 25]
- pIC50 (MAO): 6.00

Compound: COc1ccc2c(=O)c(-c3ccccc3)coc2c1 [Analog 3, 7-Methoxyisoflavone]
- π (hydrophobic constant of the 4′-substituent) [1]: 0.00

Compound: CCOC(=O)CCCCCOc1ccc2c(=O)c(-c3ccccc3)coc2c1 [Analog 7, 7-O-Ethoxycarbonylpentylisoflavone]
- π (hydrophobic constant of the 4′-substituent) [1]: 0.00

Compound: O=c1c(-c2ccc(O)cc2)coc2cc(O)ccc12 [Analog 40]
- EtOH intake suppression, % (golden hamsters): 22 ± 5%
- pIC50 (MAO): 4.92

Compound: CCO [Ethanol, ethanol]
- Effect on 5-HT metabolism (in words) [2]: did not effect 5-HT metabolism
- Effect on 5-HT metabolism (in words) [3]: did not effect 5-HT metabolism

Compound: CCc1ccc2c(=O)c(-c3ccccc3)coc2c1 [Analog 35, 7-Ethylisoflavone]
- melting point: 103 to 104 °C

Compound: O=c1c(-c2ccc(F)cc2)coc2cc(O)ccc12 [Analog 23]
- pIC50 (MAO): 5.82

Compound: CCOC(=O)CCCCCOc1ccc2c(=O)c(-c3ccc([N+](=O)[O-])cc3)coc2c1 [Analog 28, 7-O-Ethoxycarbonylpentyl-4′-Nitroisoflavone]
- π (hydrophobic constant of the 4′-substituent) [1]: −0.28

Compound: Nc1ccc(-c2coc3cc(O)ccc3c2=O)cc1 [Analog 32]
- pIC50 (MAO): 4.92 and < 5.05

Compound: CCOC(=O)c1oc2cc(O)ccc2c(=O)c1-c1ccccc1 [Analog 20, 2-Ethoxycarbonyl-7-Hydroxyisoflavone]
- melting point: 213 to 214 °C

Compound: O=C(O)CCCCCOc1ccc2c(=O)c(-c3ccc(O)cc3)coc2c1 [Hexzein, 7-O-ω-carboxypentyldaidzein]
- Concentration found in the liver (in words) [4]: pharmacologically relevant concentrations
- EtOH intake suppression, % (golden hamsters): 69 ± 12%
- Ethanol intake reduced by ([5]; 2 mg/g hexzein-Chow): 18.3±3.8%
- Ethanol intake reduced by ([5]; 4 mg/g hexzein-Chow): 47.8±7.4%
- Ethanol intake reduced by ([5]; 5 mg/g hexzein-Chow): 56.5±5.4%

Compound: Cc1ccc(-c2coc3cc(O)ccc3c2=O)cc1 [Analog 29]
- pIC50 (MAO): 5.05

Compound: COc1ccc2c(=O)c(-c3ccccc3)coc2c1OC [Analog 34, 7,8-Dimethoxyisoflavone]
- melting point: 143 to 144 °C

Compound: O=C1c2ccccc2C(=O)N1CCCCOc1ccc2c(=O)c(-c3ccccc3)coc2c1 [Analog 14]
- EtOH intake suppression, % (golden hamsters): 37 ± 3%
- pIC50 (ALDH-2): 5.10 to 6.85
- MAO inhibition (in words) (MAO): none of the 4′-H series (analogs 3, 5, 7, 9, 12 and 14) had any effect on MAO

Compound: O=c1c(-c2ccc(Br)cc2)coc2cc(O)ccc12 [Analog 25, 7-Hydroxy-4′-Bromoisoflavone]
- melting point: 266 to 268 °C
